Values joined by “and” are separate entries in the source; they are usually repeats but may differ in a detail not shown here. Equal values may be shown once. Read-outs that look alike come from different tables or passages of the source.
How the values were obtained:
[1] = biological target: T1, hLOX-5 (Homo sapiens, UniProt P09917); assay: Inhibition of human lipoxygenase-5 (fluorescence-based, Pufahl); type: biochemical; conditions: three independent experiments
T1 sequence (P09917 1-674): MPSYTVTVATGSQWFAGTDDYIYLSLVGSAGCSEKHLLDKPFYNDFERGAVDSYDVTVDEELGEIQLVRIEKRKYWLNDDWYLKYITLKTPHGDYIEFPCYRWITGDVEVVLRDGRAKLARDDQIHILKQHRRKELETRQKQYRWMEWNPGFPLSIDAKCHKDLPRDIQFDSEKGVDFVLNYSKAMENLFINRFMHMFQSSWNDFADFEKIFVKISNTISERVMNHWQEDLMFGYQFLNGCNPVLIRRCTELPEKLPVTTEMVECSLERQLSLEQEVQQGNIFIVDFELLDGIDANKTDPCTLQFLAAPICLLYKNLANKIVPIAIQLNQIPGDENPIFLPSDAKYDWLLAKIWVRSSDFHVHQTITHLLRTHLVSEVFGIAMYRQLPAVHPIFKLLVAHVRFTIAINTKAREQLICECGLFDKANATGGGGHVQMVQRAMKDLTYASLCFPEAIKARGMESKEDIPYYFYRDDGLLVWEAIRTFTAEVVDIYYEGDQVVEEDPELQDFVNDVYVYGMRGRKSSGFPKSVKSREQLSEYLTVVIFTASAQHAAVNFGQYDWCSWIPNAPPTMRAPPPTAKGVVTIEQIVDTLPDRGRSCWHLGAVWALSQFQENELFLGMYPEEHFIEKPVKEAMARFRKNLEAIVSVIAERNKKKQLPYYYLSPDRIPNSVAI
Procedure: The fluorescence-based enzyme method developed by Pufahl et al. was followed, in 96-well microtiter plates. The assay solution consists of Tris buffer (50 mM, pH 7.5), ethylenediaminetetraacetic acid (EDTA, 2 mM), CaCl2 (2 mM), arachidonic acid (AA, 3 μM), ATP (10 μM), 2',7'-dichlorodihydrofluorescein diacetate (H2DCFDA, 10 μM), hLOX-5 (100 mU/well), bovine glutathione peroxidase (GPx, 25 mU/well) and reduced glutathione (GSH, 1 mM). Compounds to be tested were added to the test solution prior to AA and ATP, and pre-incubated for a period of 10 min at room temperature. Then, the AA and ATP substrates were added; the enzymatic reaction allowed to progress for 20 min and ended by the addition of 40 μL of acetonitrile.
A selection of new hybrids covering different structural motifs was assayed as inhibitors of hLOX-5, followed the method described by Pufahl et al.[55].

[2] = Oxygen radical absorbance capacity assay (ORAC); conditions: trolox taken as 1.0
[3] = biological target: T2, hAChE (Homo sapiens, UniProt P22303); assay: Kinetic analysis of hAChE inhibition (Lineweaver-Burk); type: biochemical
T2 construct: purchased Sigma Chemical Co
T2 sequence (P22303 32-614): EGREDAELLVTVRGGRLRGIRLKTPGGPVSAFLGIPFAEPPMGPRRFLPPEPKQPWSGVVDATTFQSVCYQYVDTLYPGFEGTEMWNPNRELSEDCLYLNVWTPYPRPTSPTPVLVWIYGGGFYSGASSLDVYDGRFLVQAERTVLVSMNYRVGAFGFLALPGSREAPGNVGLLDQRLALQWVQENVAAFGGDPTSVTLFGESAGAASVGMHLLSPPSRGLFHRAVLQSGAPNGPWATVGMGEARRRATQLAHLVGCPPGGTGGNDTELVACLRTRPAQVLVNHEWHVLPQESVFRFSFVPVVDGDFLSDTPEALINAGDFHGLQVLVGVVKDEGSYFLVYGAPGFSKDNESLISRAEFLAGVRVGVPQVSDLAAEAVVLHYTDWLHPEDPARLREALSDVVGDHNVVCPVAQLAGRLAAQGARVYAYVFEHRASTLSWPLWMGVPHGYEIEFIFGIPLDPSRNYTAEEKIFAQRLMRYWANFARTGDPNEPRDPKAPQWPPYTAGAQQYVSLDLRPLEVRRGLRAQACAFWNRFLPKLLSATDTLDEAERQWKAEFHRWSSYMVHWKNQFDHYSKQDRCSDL
Procedure: Figure 3. Kinetic study on the mechanism of hAChE inhibition by hybrid 5. (A) Overlaid Lineweaver-Burk reciprocal plots of hAChE initial velocity at increasing substrate concentration (ATCh, 0.2–1.6 mM) in the absence of inhibitor and in the presence of 5 (0–10 µM) are shown. Lines were derived from a least-squares analysis of the data points. (B) Replot of slopes vs. inhibitor concentration for calculating Ki as the intersection in the x-axis. […]
The initial velocity of enzymatic inhibition was measured at four concentrations of the substrate acetylthiocholine (ATCh, 0.2–1.6 mM), in absence and presence of increasing concentrations of inhibitor 5 (0.5–10 µM). For each inhibitor concentration, plotting reciprocals of velocity vs. ATCh concentration (1/V vs. 1/[ATCh]) gave straight lines that were fitted by least-squares analysis (Figure 3). […]

[4] = biological target: T3, human recombinant BACE-1 (hBACE-1) (Homo sapiens, UniProt P56817); assay: Human BACE-1 inhibition FRET assay; type: biochemical
T3 construct: purchased Invitrogen
T3 sequence (P56817 46-501): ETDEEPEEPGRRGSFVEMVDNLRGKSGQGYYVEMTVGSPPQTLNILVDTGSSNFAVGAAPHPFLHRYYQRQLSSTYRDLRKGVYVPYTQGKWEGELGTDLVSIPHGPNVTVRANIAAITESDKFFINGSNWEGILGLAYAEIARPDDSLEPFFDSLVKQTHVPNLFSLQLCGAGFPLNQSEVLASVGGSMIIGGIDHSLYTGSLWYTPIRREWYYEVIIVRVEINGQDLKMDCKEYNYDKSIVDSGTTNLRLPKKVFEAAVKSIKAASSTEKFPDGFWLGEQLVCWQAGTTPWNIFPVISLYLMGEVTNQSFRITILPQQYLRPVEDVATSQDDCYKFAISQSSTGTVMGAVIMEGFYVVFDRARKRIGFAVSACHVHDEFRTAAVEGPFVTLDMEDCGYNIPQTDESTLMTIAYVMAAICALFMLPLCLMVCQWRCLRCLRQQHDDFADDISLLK
Procedure: This experiment was carried out according to the protocol described by the manufacturer (Invitrogen) using a FRET assay[54]. […] The intact substrate is weakly fluorescent and becomes highly fluorescent upon enzymatic cleavage. The assays were conducted in 50 mM sodium acetate buffer, pH 4.5, in a final enzyme concentration (1 U/mL). The mixture was incubated for 60 min at 25 °C under dark conditions and then stopped with 2.5 M sodium acetate.

[5] = tested on: adult mice SGZ-derived NSCs; assay: Neurogenic assay on SGZ-derived neural stem cells grown as neurospheres; type: cell-based, mouse; conditions: 10 µM, 7 days plus 3 days differentiation, vs. vehicle-treated cultures
Procedure: DAPI was used for nuclear staining.
Neural stem cells were isolated from the SGZ of the dentate gyrus of the hippocampus of adult mice and cultured as NS according to previously published protocols[75]^,[76]. […] Now, NS were adhered onto 100 μg/mL poly-L-lysine-coated coverslips and treated for 3 additional days in the presence of serum but in the absence of exogenous growth factors to induce differentiation[77]. Finally, the expression of neuronal markers was analysed by immunocytochemistry using antibodies linked to neurogenesis: β-III-tubulin polyclonal antibody (TuJ clone; Abcam), a protein expressed at early stages of neurogenesis and a monoclonal microtubule-associated protein type 2 (MAP-2) antibody, a classical marker of late neuronal maturation. To visualise primary antibodies Alexa-fluor-labeled secondary antibodies (Molecular probes) were used. Nuclei were stained with DAPI. Fluorescent representative images were acquired in a LSM710 laser scanning spectral confocal microscope (Zeiss). […]
Compound was added to NS cultures for 7 days and then, NS were fixed to a substrate and allowed to differentiate in the presence of 6 for a 3-days additional period. Then, we evaluated the expression of β-III-tubulin (TuJ-1 clone; green) and microtubule-associated protein 2 (MAP-2, red) antibodies to visualise early and late neuronal maturation, respectively.

[6] = mean ± SEM, read-out: hLOX-5 IC50

COc1ccc2oc(C(=O)Nc3ccc(CN(C)Cc4ccccc4)cc3)cc(=O)c2c1 [Compound 1, N-(4-((Benzyl(methyl)amino)methyl)phenyl)-6-methoxy-4-oxo-4H-chromene-2-carboxamide] gave an IC50 [1, 6] of 12.4 ± 0.5 µM.

For CN(Cc1ccccc1)Cc1ccc(NC(=O)c2cc(=O)c3cc(O)ccc3o2)cc1 [Compound 2, N-(4-((Benzyl(methyl)amino)methyl)phenyl)-6-hydroxy-4-oxo-4H-chromene-2-carboxamide], the “ORAC, trolox equivalents” value [2] was 1.6 mmol of trolox/mmol of tested compound and 1.6 ± 0.2 mmol of trolox/mmol of tested compound, the “hLOX-5 IC50” value ([1]; mean ± SEM) was “inactive” and the IC50 [1, 6] was > 100 µM.

With COc1cc2oc(C(=O)Nc3ccc(CN(C)Cc4ccccc4)cc3)cc(=O)c2cc1OC [Compound 5, N-(4-((Benzyl(methyl)amino)methyl)phenyl)-6,7-dimethoxy-4-oxo-4H-chromene-2-carboxamide] the IC50 [1, 6] was 72.4 ± 2.2 µM, the Ki [3] was 0.95 µM and the “mechanism of hAChE inhibition” value ([3]; Lineweaver-Burk) was “a mixture of competitive and non-competitive mechanisms”.

For COc1cc2oc(C(=O)Nc3cccc(CN(C)Cc4ccccc4)c3)cc(=O)c2cc1OC [Compound 6, N-(3-((Benzyl(methyl)amino)methyl)phenyl)-6,7-dimethoxy-4-oxo-4H-chromene-2-carboxamide], the inhibition at 10 µM ([4]; 10 µM, read-out: hBACE-1 inhibition percentage) was ~80%, the IC50 ([4]; inhibitor concentrations 0.1–100 µM) was 6.7 ± 0.8 µM and the IC50 ([1]; hLOX-5 IC50, mean ± SEM) was 30 µM and 30.4 µM. The “number of TuJ-1 and MAP-2 marked cells (neuronal differentiation of NSCs)” value [5] was “clearly increased”.

— paper PMC6407579, “New flavonoid – N,N-dibenzyl(N-methyl)amine hybrids: Multi-target-directed agents for Alzheimer´s disease endowed with neurogenic properties” (Journal of Enzyme Inhibition and Medicinal Chemistry, 2019)
